Test results reported in patent publication US9540379B2 (priority 2011, dated 2017).
Read-outs that look alike come from different tables or passages of the source.

Assays:
PDE10A [1] = target: T1, PDE10A (Homo sapiens (Human), UniProt Q9Y233); assay: biochemical
Procedure: (§1) Inhibition of Recombinant PDE10A (Expressed in Baculovirus/SF21 Cells)
(§2) PDE activity was determined in a one step procedure in microtiter plates. The reaction mixture of 100 μl contained 50 mM Tris-HCl/5 mM MgCl2 buffer (pH=7.4, Sigma, Deisenhofen, Germany; Merck, Darmstadt, Germany) 0.1 μM [3H]-cAMP (PerkinElmer, Shelton, USA) and the enzyme. Non-specific enzyme activity was determined without the enzyme.
(§3) The reaction was initiated by addition of the substrate solution and was carried out at 37° C. for 30 minutes. Enzymatic activity then was stopped by addition of 25 μl Ysi-SPA-beads (PerkinElmer, Shelton, USA). One h later the mixture was measured in a liquid scintillation counter for microtiter plates (Microbeta Trilux). The Biomek 2000 (Beckman) was used routinely for pipetting of the incubation mixture. […] For determination of IC50 values the Hill-plot, 2-parameter-model, was used.

PDE10A [2] = target: T1, PDE10A; conditions: read-out: Inhibition of PDE10A, IC50
Procedure: as §1, §2, §3

T1 sequence (Q9Y233 other isoform, or with tags, fused parts or gaps): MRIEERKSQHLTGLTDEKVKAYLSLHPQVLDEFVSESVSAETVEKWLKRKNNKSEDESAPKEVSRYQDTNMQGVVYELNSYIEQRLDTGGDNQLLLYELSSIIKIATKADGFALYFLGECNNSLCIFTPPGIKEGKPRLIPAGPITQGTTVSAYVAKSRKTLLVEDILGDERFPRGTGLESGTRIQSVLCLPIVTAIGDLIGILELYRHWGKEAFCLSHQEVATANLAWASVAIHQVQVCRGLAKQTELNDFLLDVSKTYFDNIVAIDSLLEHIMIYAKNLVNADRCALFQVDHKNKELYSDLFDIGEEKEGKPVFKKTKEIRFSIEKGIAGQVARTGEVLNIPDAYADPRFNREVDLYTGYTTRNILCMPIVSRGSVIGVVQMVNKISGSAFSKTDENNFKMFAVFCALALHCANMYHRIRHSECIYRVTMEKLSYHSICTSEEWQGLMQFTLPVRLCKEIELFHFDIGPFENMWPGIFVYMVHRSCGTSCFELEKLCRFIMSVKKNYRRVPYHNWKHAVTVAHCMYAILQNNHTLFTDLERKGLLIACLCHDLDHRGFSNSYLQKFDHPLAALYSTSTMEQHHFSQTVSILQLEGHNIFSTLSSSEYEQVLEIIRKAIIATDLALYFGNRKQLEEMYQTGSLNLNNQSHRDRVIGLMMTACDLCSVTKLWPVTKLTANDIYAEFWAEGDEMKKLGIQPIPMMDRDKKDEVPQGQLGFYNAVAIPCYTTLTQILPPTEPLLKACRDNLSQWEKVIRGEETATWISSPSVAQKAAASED

## Cc1nc2cc(Cl)ccc2n2c(-c3cc(OCCCC(F)(F)F)ccc3Cl)nnc12 [Example 27, 7-Chloro-1-[2-chloro-5-(4,4,4-trifluoro-butoxy)-phenyl]-4-methyl-[1,2,4]triazolo[4,3-a]quinoxaline]
PDE10A [1]
  IC50: > 1000 nM

## COCCOc1ccc(F)c(-c2nnc3cnc4cc(Cl)ccc4n23)c1 [Example 29, 7-Chloro-1-[2-fluoro-5-(2-methoxy-ethoxy)-phenyl]-[1,2,4]triazolo[4,3-a]quinoxaline]
PDE10A [1]
  IC50: > 1000 nM

## CSc1ncccc1-c1nnc2c(C)nc3cc(C(F)(F)F)ccc3n12 [Example 69, 4-Methyl-1-(2-methylsulfanyl-pyridin-3-yl)-7-trifluoromethyl-[1,2,4]triazolo[4,3-a]quinoxaline]
PDE10A [1]
  IC50: > 1000 nM

## Cc1nc2cc(C(F)(F)F)ccc2n2c(-c3c(F)cccc3F)nnc12 [Example 70, 1-(2,6-Difluoro-phenyl)-4-methyl-7-trifluoromethyl-[1,2,4]triazolo[4,3-a]quinoxaline]
PDE10A [1]
  IC50: 77 nM

## COc1ccc2c(c1)nc(C)c1nnc(-c3c(F)cccc3F)n12 [Example 75, 1-(2,6-Difluoro-phenyl)-7-methoxy-4-methyl-[1,2,4]triazolo[4,3-a]quinoxaline]
PDE10A [1]
  IC50: 334 nM

## Cc1nc2cc(OCc3ccc(F)cc3)ccc2n2c(-c3ccccc3Cl)nnc12 [Example 77, 1-(2-Chloro-phenyl)-7-(4-fluoro-benzyloxy)-4-methyl-[1,2,4]triazolo[4,3-a]quinoxaline]
PDE10A [1]
  IC50: 118 nM

## Cc1nc2cc(OCc3ccc4ccccc4n3)ccc2n2c(-c3ccccc3Cl)nnc12 [Example 79, 1-(2-Chloro-phenyl)-4-methyl-7-(quinolin-2-ylmethoxy)-[1,2,4]triazolo[4,3-a]quinoxaline]
PDE10A [2]
  IC50: 1 nM

## Cc1nc2ccc(OCc3ccc4ccccc4n3)cc2n2c(-c3ccccc3Cl)nnc12 [Example 80, 1-(2-Chloro-phenyl)-4-methyl-8-(quinolin-2-ylmethoxy)-[1,2,4]triazolo[4,3-a]quinoxaline]
PDE10A [2]
  IC50: 10 nM

## CC(=O)OCCCCOc1ccc(Cl)c(-c2nnc3c(C)nc4ccccc4n23)c1 [Example 89, Acetic acid 4-[4-chloro-3-(4-methyl-[1,2,4]triazolo[4,3-a]quinoxalin-1-yl)-phenoxy]-butyl ester]
PDE10A [2]
  IC50: > 1000 nM

## Cc1nc2ccccc2n2c(-c3cc(OCCN4CCOCC4)ccc3Cl)nnc12 [Example 91, 1-[2-Chloro-5-(2-morpholin-4-yl-ethoxy)-phenyl]-4-methyl-[1,2,4]triazolo[4,3-a]quinoxaline]
PDE10A [2]
  IC50: > 1000 nM

## Cc1nc2ccccc2n2c(-c3cc(OCC(=O)c4ccccn4)ccc3Cl)nnc12 [Example 93, 2-[4-Chloro-3-(4-methyl-[1,2,4]triazolo[4,3-a]quinoxalin-1-yl)-phenoxy]-1-pyridin-2-yl-ethanone]
PDE10A [2]
  IC50: > 1000 nM

## Cc1nc2ccccc2n2c(-c3cc(OCCN4CCN(C)CC4)ccc3Cl)nnc12 [Example 94, 1-{2-Chloro-5-[2-(4-methyl-piperazin-1-yl)-ethoxy]-phenyl}-4-methyl-[1,2,4]triazolo[4,3-a]quinoxaline]
PDE10A [1]
  IC50: > 1000 nM

## Cc1nc2ccccc2n2c(-c3cc(OCCN4CCCCC4)ccc3Cl)nnc12 [Example 95, 1-[2-Chloro-5-(2-piperidin-1-yl-ethoxy)-phenyl]-4-methyl-[1,2,4]triazolo[4,3-a]quinoxaline]
PDE10A [2]
  IC50: > 1000 nM

## Cc1nc2ccccc2n2c(-c3cc(OCCN4CCCC4)ccc3Cl)nnc12 [Example 96, 1-[2-Chloro-5-(2-pyrrolidin-1-yl-ethoxy)-phenyl]-4-methyl-[1,2,4]triazolo[4,3-a]quinoxaline]
PDE10A [2]
  IC50: > 1000 nM

## Cc1nc2ccccc2n2c(-c3cc(OCCC4CCOCC4)ccc3Cl)nnc12 [Example 97, 1-{2-Chloro-5-[2-(tetrahydro-pyran-4-yl)-ethoxy]-phenyl}-4-methyl-[1,2,4]triazolo[4,3-a]quinoxaline]
PDE10A [2]
  IC50: > 1000 nM

## Cc1nc2ccccc2n2c(-c3cc(OCC(C)O)ccc3Cl)nnc12 (centres unmarked) [Example 100, 1-[4-Chloro-3-(4-methyl-[1,2,4]triazolo[4,3-a]quinoxalin-1-yl)-phenoxy]-propan-2-ol]
PDE10A [2]
  IC50: 784 nM

## Cc1nc2ccc(Cl)cc2n2c(-c3cc(OCCCO)ccc3Cl)nnc12 [Example 101, 3-[4-Chloro-3-(8-chloro-4-methyl-[1,2,4]triazolo[4,3-a]quinoxalin-1-yl)-phenoxy]-propan-1-ol]
PDE10A [2]
  IC50: 319 nM

## Cc1nc2ccc(Cl)cc2n2c(-c3cc(OCC(C)O)ccc3Cl)nnc12 (centres unmarked) [Example 102, 1-[4-Chloro-3-(8-chloro-4-methyl-[1,2,4]triazolo[4,3-a]quinoxalin-1-yl)-phenoxy]-propan-2-ol]
PDE10A [2]
  IC50: 611 nM

## Cc1nc2ccccc2n2c(-c3cc(OC[C@H](C)O)ccc3Cl)nnc12 [Example 103, (S) 1-[4-Chloro-3-(4-methyl-[1,2,4]triazolo[4,3-a]quinoxalin-1-yl)-phenoxy]-propan-2-ol]
PDE10A [1]
  IC50: > 1000 nM

## Cc1nc2ccccc2n2c(-c3cc(OC[C@@H](C)O)ccc3Cl)nnc12 [Example 104, (R) 1-[4-Chloro-3-(4-methyl-[1,2,4]triazolo[4,3-a]quinoxalin-1-yl)-phenoxy]-propan-2-ol]
PDE10A [1]
  IC50: > 1000 nM

## Cc1nc2ccccc2n2c(-c3cc(OCC(O)c4ccccn4)ccc3Cl)nnc12 (centres unmarked) [Example 105, 2-[4-Chloro-3-(4-methyl-[1,2,4]triazolo[4,3-a]quinoxalin-1-yl)-phenoxy]-1-pyridin-2-yl-ethanol]
PDE10A [1]
  IC50: > 1000 nM

## Cc1nc2ccccc2n2c(-c3cc(OCC(F)c4ccccn4)ccc3Cl)nnc12 (centres unmarked) [Example 106, 1-[2-Chloro-5-(2-fluoro-2-pyridin-2-yl-ethoxy)-phenyl]-4-methyl-[1,2,4]triazolo[4,3-a]quinoxaline]
PDE10A [1]
  IC50: 963 nM

## Cc1nc2ccc(Cl)cc2n2c(-c3cc(O)ccc3Cl)nnc12 [Example 107, 4-Chloro-3-(8-chloro-4-methyl-[1,2,4]triazolo[4,3-a]quinoxalin-1-yl)-phenol]
PDE10A [2]
  IC50: 13 nM

## COCCOc1ccc(F)c(-c2nnc3cnc4ccccc4n23)c1 [Example 109, 1-[2-Fluoro-5-(2-methoxy-ethoxy)-phenyl]-[1,2,4]triazolo[4,3-a]quinoxaline]
PDE10A [2]
  IC50: > 1000 nM

## Cc1ccc2nc(C)c3nnc(-c4cc(OCCCC(F)(F)F)ccc4Cl)n3c2c1 [Example 110, 1-[2-Chloro-5-(4,4,4,-trifluoro-butoxy)-phenyl]-4,8-dimethyl-[1,2,4]triazolo[4,3-a]quinoxaline]
PDE10A [2]
  IC50: > 1000 nM

## Cc1nc2cc(C#N)ccc2n2c(-c3cc(OCCCC(F)(F)F)ccc3Cl)nnc12 [Example 111, 7-Cyano-1-[2-chloro-5-(4,4,4,-trifluoro-butoxy)-phenyl]-4-methyl-[1,2,4]triazolo[4,3-a]quinoxaline]
PDE10A [2]
  IC50: > 1000 nM
